Results taken from the NIST ThermoML archive (doi:10.1021/je5009125).
Numbers after ± are expanded uncertainties.

Test: xn = mol fraction of the nth substance listed
Settings: Liquid; for viscosity: Vibrating wire viscometry; for mass density: Vibrating tube method

O=C=O [carbon dioxide] + O
viscosity (373.13 K, 70300 kPa, x1 = 0.0086): 0.302 ± 0.006 mPa·s | viscosity (373.13 K, 96400 kPa, x1 = 0.0086): 0.308 ± 0.006 mPa·s | mass density (373.38 K, 70590 kPa, x1 = 0.0271): 998.2 ± 0.7 kg/m3 | mass density (373.38 K, 100800 kPa, x1 = 0.0271): 1010.3 ± 0.7 kg/m3 | mass density (373.42 K, 15090 kPa, x1 = 0.0086): 967.8 ± 0.7 kg/m3 | mass density (373.42 K, 30180 kPa, x1 = 0.0086): 974.6 ± 0.7 kg/m3 | mass density (373.42 K, 50280 kPa, x1 = 0.0086): 983.2 ± 0.7 kg/m3 | mass density (373.42 K, 70390 kPa, x1 = 0.0086): 991.5 ± 0.7 kg/m3 | mass density (373.42 K, 100710 kPa, x1 = 0.0086): 1003.2 ± 0.7 kg/m3 | mass density (373.46 K, 30190 kPa, x1 = 0.0168): 977.8 ± 0.7 kg/m3 | mass density (373.46 K, 50320 kPa, x1 = 0.0168): 986.5 ± 0.7 kg/m3 | mass density (373.46 K, 70450 kPa, x1 = 0.0168): 994.9 ± 0.7 kg/m3 | mass density (373.46 K, 100740 kPa, x1 = 0.0168): 1006.7 ± 0.7 kg/m3 | viscosity (374.09 K, 70300 kPa, x1 = 0.0271): 0.309 ± 0.006 mPa·s | viscosity (374.09 K, 96400 kPa, x1 = 0.0271): 0.318 ± 0.006 mPa·s | viscosity (397.88 K, 30100 kPa, x1 = 0.0168): 0.233 ± 0.005 mPa·s | viscosity (397.88 K, 50200 kPa, x1 = 0.0168): 0.238 ± 0.006 mPa·s | viscosity (397.88 K, 70200 kPa, x1 = 0.0168): 0.244 ± 0.006 mPa·s | viscosity (397.88 K, 96300 kPa, x1 = 0.0168): 0.25 ± 0.006 mPa·s | viscosity (397.98 K, 30100 kPa, x1 = 0.0086): 0.231 ± 0.005 mPa·s | viscosity (397.98 K, 50200 kPa, x1 = 0.0086): 0.236 ± 0.006 mPa·s | viscosity (397.98 K, 70300 kPa, x1 = 0.0086): 0.242 ± 0.006 mPa·s | viscosity (397.98 K, 96400 kPa, x1 = 0.0086): 0.248 ± 0.006 mPa·s | mass density (398.48 K, 50470 kPa, x1 = 0.0271): 970 ± 0.7 kg/m3 | mass density (398.48 K, 70600 kPa, x1 = 0.0271): 979.3 ± 0.7 kg/m3 | mass density (398.48 K, 100800 kPa, x1 = 0.0271): 992.1 ± 0.7 kg/m3 | mass density (398.55 K, 15060 kPa, x1 = 0.0086): 948.3 ± 0.6 kg/m3 | mass density (398.55 K, 30170 kPa, x1 = 0.0086): 955.6 ± 0.6 kg/m3 | mass density (398.55 K, 30190 kPa, x1 = 0.0168): 958.2 ± 0.7 kg/m3 | mass density (398.55 K, 50290 kPa, x1 = 0.0086): 964.9 ± 0.7 kg/m3 | mass density (398.55 K, 50330 kPa, x1 = 0.0168): 967.8 ± 0.7 kg/m3 | mass density (398.55 K, 70390 kPa, x1 = 0.0086): 973.7 ± 0.7 kg/m3 | mass density (398.55 K, 70460 kPa, x1 = 0.0168): 976.7 ± 0.7 kg/m3 | mass density (398.55 K, 100710 kPa, x1 = 0.0086): 986 ± 0.7 kg/m3 | mass density (398.55 K, 100730 kPa, x1 = 0.0168): 989.4 ± 0.7 kg/m3 | viscosity (398.98 K, 50200 kPa, x1 = 0.0271): 0.241 ± 0.006 mPa·s | viscosity (398.98 K, 70200 kPa, x1 = 0.0271): 0.245 ± 0.006 mPa·s | viscosity (398.98 K, 96300 kPa, x1 = 0.0271): 0.254 ± 0.006 mPa·s | viscosity (422.91 K, 30000 kPa, x1 = 0.0168): 0.192 ± 0.005 mPa·s | viscosity (422.91 K, 50100 kPa, x1 = 0.0168): 0.196 ± 0.005 mPa·s | viscosity (422.91 K, 70200 kPa, x1 = 0.0168): 0.202 ± 0.005 mPa·s | viscosity (422.91 K, 96200 kPa, x1 = 0.0168): 0.208 ± 0.005 mPa·s | viscosity (423.82 K, 50200 kPa, x1 = 0.0271): 0.198 ± 0.005 mPa·s | viscosity (423.82 K, 70300 kPa, x1 = 0.0271): 0.204 ± 0.005 mPa·s | viscosity (423.82 K, 96500 kPa, x1 = 0.0271): 0.21 ± 0.005 mPa·s | mass density (423.84 K, 50460 kPa, x1 = 0.0271): 948 ± 0.7 kg/m3 | mass density (423.84 K, 70580 kPa, x1 = 0.0271): 958.1 ± 0.7 kg/m3 | mass density (423.84 K, 100810 kPa, x1 = 0.0271): 972.1 ± 0.7 kg/m3 | mass density (423.92 K, 15070 kPa, x1 = 0.0086): 925.9 ± 0.6 kg/m3 | mass density (423.92 K, 30180 kPa, x1 = 0.0086): 934 ± 0.6 kg/m3 | mass density (423.92 K, 50300 kPa, x1 = 0.0086): 944.2 ± 0.7 kg/m3 | mass density (423.92 K, 70420 kPa, x1 = 0.0086): 953.8 ± 0.7 kg/m3 | mass density (423.92 K, 100710 kPa, x1 = 0.0086): 967.1 ± 0.7 kg/m3 | mass density (423.93 K, 30200 kPa, x1 = 0.0168): 935.7 ± 0.6 kg/m3 | mass density (423.93 K, 50340 kPa, x1 = 0.0168): 946.2 ± 0.7 kg/m3 | mass density (423.93 K, 70460 kPa, x1 = 0.0168): 956 ± 0.7 kg/m3 | mass density (423.93 K, 100730 kPa, x1 = 0.0168): 969.7 ± 0.7 kg/m3 | viscosity (424.03 K, 30100 kPa, x1 = 0.0086): 0.19 ± 0.005 mPa·s | viscosity (424.03 K, 50200 kPa, x1 = 0.0086): 0.194 ± 0.005 mPa·s | viscosity (424.03 K, 70200 kPa, x1 = 0.0086): 0.199 ± 0.005 mPa·s | viscosity (424.03 K, 96400 kPa, x1 = 0.0086): 0.205 ± 0.005 mPa·s | viscosity (448.29 K, 30000 kPa, x1 = 0.0168): 0.163 ± 0.005 mPa·s | viscosity (448.29 K, 50100 kPa, x1 = 0.0168): 0.168 ± 0.005 mPa·s | viscosity (448.29 K, 70100 kPa, x1 = 0.0168): 0.173 ± 0.005 mPa·s | viscosity (448.29 K, 96200 kPa, x1 = 0.0168): 0.179 ± 0.005 mPa·s | viscosity (448.71 K, 50200 kPa, x1 = 0.0271): 0.169 ± 0.005 mPa·s | viscosity (448.71 K, 70200 kPa, x1 = 0.0271): 0.173 ± 0.005 mPa·s | viscosity (448.71 K, 96400 kPa, x1 = 0.0271): 0.179 ± 0.005 mPa·s | viscosity (448.93 K, 30000 kPa, x1 = 0.0086): 0.162 ± 0.005 mPa·s | viscosity (448.93 K, 50100 kPa, x1 = 0.0086): 0.167 ± 0.005 mPa·s | viscosity (448.93 K, 70200 kPa, x1 = 0.0086): 0.172 ± 0.005 mPa·s | viscosity (448.93 K, 96300 kPa, x1 = 0.0086): 0.178 ± 0.005 mPa·s | mass density (449.17 K, 50450 kPa, x1 = 0.0271): 923.6 ± 0.7 kg/m3 | mass density (449.17 K, 70570 kPa, x1 = 0.0271): 934.9 ± 0.7 kg/m3 | mass density (449.17 K, 100800 kPa, x1 = 0.0271): 950.3 ± 0.7 kg/m3 | mass density (449.2 K, 15080 kPa, x1 = 0.0086): 900.7 ± 0.6 kg/m3 | mass density (449.2 K, 30190 kPa, x1 = 0.0086): 909.9 ± 0.6 kg/m3 | mass density (449.2 K, 30210 kPa, x1 = 0.0168): 910.8 ± 0.6 kg/m3 | mass density (449.2 K, 50310 kPa, x1 = 0.0086): 921.3 ± 0.7 kg/m3 | mass density (449.2 K, 50360 kPa, x1 = 0.0168): 922.6 ± 0.7 kg/m3 | mass density (449.2 K, 70420 kPa, x1 = 0.0086): 931.8 ± 0.7 kg/m3 | mass density (449.2 K, 70470 kPa, x1 = 0.0168): 933.5 ± 0.7 kg/m3 | mass density (449.2 K, 100710 kPa, x1 = 0.0086): 946.4 ± 0.7 kg/m3 | mass density (449.2 K, 100740 kPa, x1 = 0.0168): 948.4 ± 0.7 kg/m3
